Assay results as given in patent publication US8877773B2, “Methods for treating chronic obstructive pulmonary disease” (Indiana University Research and Technology Corporation, priority 2009, dated 2014).
“Also recorded” adds a separate entry of the source.

How the values were obtained:
Assay type in all cases: in vivo, rat
[1] = system: Orexin A (ORX-A) producing neurons in the DMH/PeF; assay: c-Fos induction in ORX neurons of 1-AG and d-AG treated rats; settings: 1-AG infused into DMH/PeF (3.5 nmol/0.5 μl per hour); vs d-AG treated control rats
Method: Methods for perfusion and for verification of cannulae placements in experiment 12 were performed following procedures discussed herein. Briefly, 1-AG or d-AG treated rats received i.v. infusions of either lactate or saline vehicle over 15 min (n=6/group for 4 groups), were immediately tested in the SI test, then anesthetized and perfused with a 4% paraformaldehyde/1.5% sucrose solution and processed for immunohistochemistry 90 min following the onset of the i.v. infusions.
Brain sections from all rats were immunostained with the appropriate primary antibody in a single immunohistochemical run, rather than in batches, with large volume incubations to limit variability in the quality of immunohistochemical staining among brain sections.
Sections were washed in PBS and then incubated in 1% H2O2 in PBS for 20 min. Sections were washed in PBS then PBST then incubated 12-16 h in PBST with primary antibody. The following day, sections were incubated 2 h in the appropriate secondary antibody: biotinylated swine anti-rabbit IgG (c-Fos day 1, and orexin A or MCH day 2; cat no. E0353; DAKO, diluted 1:200). Sections were washed again for 30 min in PBST then incubated 1.5 h in an avidin-biotin-peroxidase complex (cat no. PK-6100, Vector Labs, diluted 1:200). […]

[2] = system: panic-prone (1-AG treated) rats; assay: Sodium lactate (NaLac) challenge in panic-prone rats: radio-telemetry of locomotor and cardiovascular (HR, MAP) responses; settings: i.p. 30 min prior to NaLac, SB334867/SB408124 30 mg/kg, alprazolam 3 mg/kg, experiments 4 and 6
Method: Telemetry probes (Data Science International, St. Paul Minn.) were surgically implanted into the abdomen of anaesthetize rats to measure locomotor responses. Cardiovascular responses were measured by a femoral arterial line connected to the telemetric probe which contained a pressure transducer (Data Science International, St. Paul Minn.).
(§1) The minipump was then sutured into place subcutaneously at the nape of the neck. The concentration of the solutions was such that 3.5 nmol/[…] per hour of 1-AG or d-AG was infused continuously into the DMH/PeF region for the remainder of the given experiment. In the case of the siRNA experiments specialized T-cannulae were implanted permitting access to a removable 28 g injector to direct siRNA injections to the same location as the 1-AG infusions. Additionally these rats had guide cannulae directed to the opposite DMH/PeF for bilateral infusion of siRNA.
(§2) Rats received intravenous (i.v.) infusions (10 ml over 15 min of either 0.5M NaLac or 0.9% isotonic saline (when applicable)) using a syringe pump at least five days following the initiation of 1-AG or d-AG infusions. Once a stable baseline was achieved, i.v. infusions began and cardiovascular and activity data were recorded for 15 min (similar to clinical NaLac infusions).
Cardiovascular responses (i.e., MAP and HR) were measured by a femoral arterial line connected to a telemetric probe which contained a pressure transducer (Cat. no. C50-PXT, Data Science International (DSI) St. Paul Minn.). […] MAP and HR were recorded continuously in freely moving conscious rats and are expressed as a 20 min time course. The data reported are changes in HR and MAP from the average of the baseline (t−5 to t−1) from each rat. […]
In experiments 4-6, rats were made panic vulnerable with 1-AG. 5 days after 1-AG onset, in a counterbalanced design, rats received intraperitoneal (i.p.) injections of treatment drug or vehicle 30 min prior to i.v. infusions. […] In experiment 5, baseline in an open field (OF) behavior test of anxiety was assessed (n=8) prior to 1-AG infusions. […] Immediately following the NaLac challenge, rats were placed in the OF test. […] In experiment 6,1-AG treated rats received an injection of an alternative ORX1 receptor antagonist (30 mg/kg SB408124 (N-(6,8-Difluoro-2-methyl-4-quinolinyl)-N′-(4-(dimethylamino)phenyl)urea), Tocris, in 0.2 ml/100 g volume DMSO, n=4) or vehicle (0.2 ml/100 g volume DMSO, n=6) 30 min prior to NaLac. In experiment 7, control rats (no 1-AG or NaLac treatment) were assessed in a SI test.
Adult male Sprague-Dawley rats were anesthetized and surgically implanted with telemetrical probes to measure cardiovascular activity prior to and during lactate infusions. After a 3 day recovery, rats were anaesthetized and had osmotic minipumps (previously filled with 1-AG) stereotaxically implanted unilaterally into the DMH. […] 1960, Tocris, in 0.2 ml/100 g volume DMSO, n=12], alprazolam (3 mg/kg, Sigma, in 0.2 ml/100 g volume DMSO, n=6) or vehicle (0.2 ml/100 g volume DMSO, n=11) 30 min prior lactate challenge.

[3] = system: panic-prone (1-AG treated) rats; assay: Sodium lactate (NaLac) challenge in panic-prone (1-AG treated) rats: social interaction (SI) test; settings: alprazolam 3 mg/kg; for anxiety-like responses (social interaction (SI) duration) after NaLac challenge: i.p. 30 min prior to NaLac, SB334867/SB408124 30 mg/kg, experiments 4 and 6
Excerpt: as §1, §2
Another SI test was performed 5 days following minipump infusions and immediately following saline or sodium lactate infusions.
In experiment 3, an RNAase free environment was maintained throughout the injection procedure and all injectors, syringes and tubing were exposed to RNaseZAP and rinsed thoroughly with RNA-free water prior to siRNA injections. […] 48 hrs after siORX or siCON treatment, these rats were exposed to saline or NaLac infusions (siCon/Sal n=4, siORX/Sal n=6, siCON/Lac n=5, siORX/Lac n=6) and SI behavioral and cardiovascular responses were recorded, and were then sacrificed by rapid decapitation, following a brief (30 s) exposure to IsoFlurane® 1 hr after the intravenous infusions.
In experiments 4-6, rats were made panic vulnerable with 1-AG. […] In experiment 5, baseline in an open field (OF) behavior test of anxiety was assessed (n=8) prior to 1-AG infusions. […] In experiment 7, control rats (no 1-AG or NaLac treatment) were assessed in a SI test. […]

[4] = system: c-Fos; assay: c-Fos immunoreactive cell counts in brain regions after FG-7142 challenge; settings: FG-7142 7.5 mg/kg ip after vehicle (veh/FG) or SB334867 30 mg/kg ip (SB/FG); 90 min
Method: Fifteen min after the FG-7142 injection, all rats were tested for anxiety behavior using a 5 min open field test (OFT); 5 min social interaction (SI) test; then a 5 min elevated plus maze (EPM) test. Ninety min following FG-7142 injections, rats were anaesthetized and then the brains were removed and processed for immunohistochemistry as described in detail in subsequent section.
Ninety min following the initiation of treatment, rats were anaesthetised with an overdose of sodium pentobarbital (40 mg, i.p.) then perfused transcardially with 0.05 M phosphate buffered saline (PBS; 250 ml), followed by 0.1 M sodium phosphate buffer (PB; 250 ml) containing 4% paraformaldehyde (PFA) and 3% sucrose. Brains were removed and post-fixed for 24 h in the same fixative, rinsed for 24 h in 0.1 M PB, then placed in cryoprotectant (30% sucrose in 0.1 M PB) for an additional 4-5 days. To maintain a consistent plane for coronal sections, brains were placed in a rat brain matrix (ASI instruments, Model No. RBM-4000C) and cut with a razor blade at the caudal border of the mammillary bodies. Brains were frozen in cooled liquid isopentane made by immersing a plastic vessel containing isopentane into a dewar flask containing liquid nitrogen. Serial coronal sections (30 μm) were cut using a cryostat and were immediately placed in cryoprotectant consisting of 27% ethylene glycol and 16% glycerol in 0.05 M PB to yield six alternate sets of sections. Sections were stored at −20° C. until immunohistochemical processing.
All brain sections were immunostained with the c-Fos primary antibody in a single immunohistochemical run, rather than in batches, with large volume incubations to limit variability in the quality of immunohistochemical staining among brain sections. However, the forebrain was immunostained for c-Fos in one run and the brainstem (i.e., midbrain, pons and medulla) in another. Immunostaining for c-Fos protein was accomplished using an affinity-purified primary antibody directed at c-Fos (rabbit anti-human c-Fos polyclonal affinity-purified antibody, Cat. no. sc-52, Santa Cruz Biotechnology, San Diego, Calif.; diluted 1:10,000). Free-floating sections were washed in 0.1 M PBS for 30 min, then incubated in 1% H2O2 in PBS for 20 min. Sections were then washed 10 min in PBS and 20 min in PBS with 0.3% Triton X-100 (PBST). Sections were then incubated 12-16 h in PBST with primary antibody solution at room temperature. After a 30 min wash in PBST, sections were incubated for 2 hr in biotinylated goat anti-rabbit IgG (Cat no. BA-1000, Vector Laboratories, Burlinghame, Calif.; diluted 1:500). Sections were washed again for 30 min in PBST then incubated 1.5 hr in an avidin-biotin-peroxidase complex provided in a standard Vector Elite kit (Cat no. PK-6100, Vector Laboratories, diluted 1:200). The peroxidase substrate for the chromogen reaction was Vector SG, which was prepared as recommended by the manufacturer (Cat. no. SK-4700, Vector Laboratories). The substrate reaction was run for 20 min for the forebrain. All sections were mounted on clean glass slides, dried overnight, dehydrated and mounted with coverslips using DPX mounting medium (BDH Laboratory Supplies, Poole, UK). All washes and incubations were done at room temperature in 12-well polystyrene plates with low frequency shaking on an orbital shaker.
Selection of anatomical levels for analysis of c-Fos-immunostained cells was conducted with reference to illustrations from a rat brain stereotaxic atlas (Paxinos and Watson, 1997). Selection of anatomical levels was also done in reference to major anatomical landmarks including white matter tracts and the ventricular systems.

[5] = system: FG-7142 treated rats; assay: FG-7142-induced anxiety: open field, social interaction and elevated plus maze tests; settings: Wistar rats; FG-7142 7.5 mg/kg ip, with or without SB334867 30 mg/kg ip
Method: All experiments were conducted on adult male Wistar rats (250-300 g) purchased from Harlan Laboratories (Indianapolis, Ind. USA) and were housed individually in plastic cages under standard environmental conditions (22° C.; 12/12 light/dark cycle; lights on at 7:00 A.M.) for 7-10 days prior to the surgical manipulations. Food and water were provided ad libitum.
The open-field arena covered an area of 90 cm×90 cm, with 40 cm high walls. The open-field arena was divided into a 6×6 grid of equally-sized squares using black tape (36 total squares) with 4 squares forming the centre; 12 squares forming the middle perimeter; and 20 squares forming the outer perimeter. The test started by placing a rat in the centre. The behavior of each rat in the open-field arena was recorded on video and scored afterwards by an observer blind to the experimental treatment of each rat. Time spent in each region of the open-field was recorded. In addition, locomotor activity was assessed by counting the number of times the rat's entire body (excluding tail) completely crossed into another square.
Following the OFT, the experimental rat was placed in an open field (0.9 m long×0.9 m wide with walls 0.3 m high) with an untreated novel partner rat. A video camera was fixed above the box, and all behavioral tests were videotaped. During the 5 min test the total amount of time the treated rat initiates interaction with the partner rat is recorded (sniffing, grooming etc.) as described previously. Videotaped sessions were scored at a later time by a SDF (blind to treatments) and a decrease in total interaction time was taken as an increase in “anxiety” like behavior.
Following the SI test, rats were place in the center area of the EPM where the two arms intersect. Unlike the SI test, the EPM measures many relevant anxiety related behaviors such as: no. of poke and full entries into and duration spent in closed versus open arm. […] Activity is measured using […] state of the art photobeams (16× beams and 16 Y beams) to provide the highest resolution system available (Automated EPM, Hamilton Kinder Scientific, San diego, CA).

C=CC[C@H](N)C(=O)O [1-AG, 1-allylglycine]
c-Fos immunoreactive ORX-A neurons in the DMH/PeF [1]: increased

Cc1cc(NC(=O)Nc2ccc(N(C)C)cc2)c2cc(F)cc(F)c2n1 [SB408124, N-(6,8-Difluoro-2-methyl-4-quinolinyl)-N′-(4-(dimethylamino)phenyl)urea]
NaLac induced increases in general locomotor activity [2]: did attenuate; also recorded: attenuated
NaLac induced increases in heart rate (HR) [2]: did attenuate; also recorded: attenuated
NaLac induced increases in mean arterial blood pressure (MAP) [2]: did not significantly alter
anxiety-like responses (social interaction (SI) duration) after NaLac challenge [3]: did not significantly alter

CNC(=O)c1cc2c(cn1)[nH]c1ccccc12 [FG-7142]
Mean number of c-Fos immunoreactive cells, Amygdala (−2.56 mm bregma) BLA [4]: 9 ± 4
Mean number of c-Fos immunoreactive cells, Amygdala (−2.56 mm bregma) LA [4]: 10 ± 4
Mean number of c-Fos immunoreactive cells, Amygdala (−2.56 mm bregma) MeA [4]: 85 ± 18
Mean number of c-Fos immunoreactive cells, DRN (−7.80 mm bregma) [4]: 1 ± 0
Mean number of c-Fos immunoreactive cells, ILC (+2.60 mm bregma) [4]: 12 ± 6
Mean number of c-Fos immunoreactive cells, IPBN (−9.30 mm bregma) [4]: 9 ± 3
Mean number of c-Fos immunoreactive cells, LC (−10.04 mm bregma) [4]: 48 ± 5
Mean number of c-Fos immunoreactive cells, LSI (+0.20 mm bregma) [4]: 12 ± 4
Mean number of c-Fos immunoreactive cells, PRL (+2.60 mm bregma) [4]: 3 ± 1
Mean number of c-Fos immunoreactive cells, PeF (−3.14 mm bregma) [4]: 67 ± 23
Mean number of c-Fos immunoreactive cells, mPBN (−9.30 mm bregma) [4]: 3 ± 1
time in open arms of elevated plus maze [5]: low open arm times

Cc1nnc2n1-c1ccc(Cl)cc1C(c1ccccc1)=NC2 [alprazolam]
NaLac induced increases in general locomotor activity [2]: attenuated
NaLac induced increases in heart rate (HR) [2]: attenuated
NaLac induced increases in mean arterial blood pressure (MAP) [2]: attenuated
anxiety-like responses (social interaction (SI) duration) after NaLac challenge [3]: attenuated
all lactate induced panic-like responses (SI, Activity, HR, MAP) ([3]; i.p. 30 min prior to lactate, SB334867 30 mg/kg): attenuated; also recorded: anti-panic effects
